From patent US9096643B2, “Cell-protective peptides and uses thereof” (priority 2010, dated 2015)
No end group written: not given here.

Tests used:
[1] = test system: neonatal rat CMs (heart cells); experiment: Apo-ONE caspase 3/7 assay after serum starvation and taxol on coated surfaces; type: cell-based, rat (Sprague-Dawley); settings: serum-starved, overnight taxol, vs control surfaces, FIG. 4
Experimental: Glass coverslips were coated with Az-chitosan, or Az-chitosan conjugated with QHREDGS, RGDS, or a scrambled peptide (DGQESHR). The cells were then seeded (100,000 cells in 50 μL of CM media; seeding density of 88 cells/mm^2) on each surface (N=3), including plain glass as a control, for 15 min. The cells were then supplemented with serum-free media. After 19 hours, 5 μL of taxol (paclitaxel, Sigma), dissolved at 100 μM in DMSO, was added and maintained for 17 hours and 45 min at which time caspase assay was performed. One set of glass surfaces was not exposed to taxol treatment as a negative control.
The Apo-ONE caspase assay (Promega) was performed according to manufacturer's protocol. The cells were permeabilized and lyzed to release the caspases, which are activated in cells undergoing apoptosis. The assay contains rhodamine 110, bis-(N-CBZ-L-aspartyl-L-glutamyl-L-valyl-L-aspartic acid amide; Z-DEVD-R110). Caspase 3 and 7 are known to cleave the peptide DEVD and the leaving group, rhodamine 110 becomes fluorescent when excited with fluorescent light. The amount of fluorescence is proportional to the level of caspase 3/7 activity in the sample. According to the manufacturer's protocol, the caspase substrate was dissolved in a buffer at 1:100. […] The fluorescence of the buffer was read in the fluorometer at an excitation of 485 nm and a cut off of 520 nm. […]

[2] = test system: neonatal rat CMs (heart cells); experiment: Preliminary 3D cell encapsulation studies in hydrogels; type: cell-based, rat (Sprague-Dawley); settings: encapsulated, 1 to 4 days of 3D culture
Experimental: The lyophilized form of the peptide-modified Az-chitosan was dissolved in sterile 0.9% saline at 12 mg/mL. CMs (2.5×10^6) were suspended in 15 μL of CM culture media with 30% serum for 15 minutes on ice. These cells were then suspended in 35 μL of the hydrogel and crosslinked in the transwell inserts of the 96 well plates. The cells were cultivated in the CM culture medium with 10% FBS for up to 4 days.

[3] = test system: Rat neonatal cardiomyocytes; experiment: Hydrogen peroxide treatment, Trypan blue viability (monolayer); type: cell-based; settings: 500 μM peptide 1.5 hr, 100 μM H2O2 10 min, FIG. 5A
Experimental: Rat neonatal cardiomyocytes were incubated for 1.5 hr with 500 μM QHREDGS, scrambled (scram) QHREDGS peptide (DGQESHR), or PBS control (PBS); 200 nM ang 1 or its matched buffer control [0.1% bovine serum albumin (BSA) in PBS] in the culture medium. The culture medium consisted of Dulbecco's Modified Eagle's Medium (DMEM) with 0.5% BSA and cytosine-β-D-arabinofuranoside (anti-proliferative). Reactive oxygen species were increased by addition of 100 μM H2O2 for 10 min (37° C., 5% CO2) (N=6/group). Cell viability was measured using a Trypan blue stain. Trypan blue dye is impermeable to viable cells, but enters dead/damaged cells with impaired membrane integrity, staining cells blue.

[4] = test system: Rat neonatal cardiomyocytes; experiment: ATP assay (CellTiter-Glo) in serum-starved cardiomyocytes; type: cell-based; settings: 500 μM peptide, 1 d
Experimental: Rat neonatal cardiomyocytes were incubated with PBS (control), 500 μM QHREDGS, scrambled QHREDGS peptide, GRGDSP peptide or 400 nM ang 1 or ang2 in DMEM/0.5% BSA/cytosine-β-D-arabinofuranoside (37° C., 5% CO2, 1 d). ATP levels were quantified using the CellTiter-Glo Luminescent Assay (Promega) as per manufacturer's instructions (N=6/group). Luminescence was measured using a Wallac 1420 microplate reader.

[5] = test system: Human ESC-derived cardiac cells (Hes2); experiment: H2O2 exposure, CFDA-Live/PI-Dead of human ESC-derived cardiac cells; type: cell-based; settings: 50 μM, 100 μM H2O2 10 min, FIG. 19
Experimental: (§1) Human ESC-derived cardiac cell culture, were derived from Day 20 EBs, consisting of greater than 50% cardiomyocytes obtained by directed differentiation of human ES (Hes2) cells as described by Yang et al. (Nature 453, 524-528 (2008)). EBs were dissociated using Collagenase I (Invitrogen) for 2 hrs and 0.05% Trypsin-EDTA (Invitrogen) for 5 min and plated at 40000 cells/cm^2 onto 0.2% gelatin-coated plates in Stempro 34 medium supplemented with VEGF (10 ng/ml) and DKK1 (150 ng/ml). Cells were cultured in the presence of 50 μM QHREDGS, 50 μM DGQESHR (Biomatik) or PBS until they formed a beating monolayer, around 10 days. Peptides were replenished during media changes every 3 days. 100 μM H2O2 (Sigma, dissolved in PBS) was added to culture media for 10 min, washed, and analyzed immediately for CFDA-Live/PI-Dead. Live cells were counted using the cell counter plug in for ImageJ. 0.5 μM or 2.5 μM taxol (Sigma, dissolved in DMSO) was added to culture media for 24 hrs, and the extent of apoptosis was analyzed immediately using the Apo-ONE Homogeneous Caspase Assay (Promega), or TUNEL assay (Roche) as described above. A PBS control was used for H2O2 and DMSO control was used for taxol.

[6] = test system: Human ESC-derived cardiac cells (Hes2); experiment: Caspase 3/7 assay of human ESC-derived cardiac cells; type: cell-based; settings: 50 μM, FIG. 20
Experimental: as §1

## Az-chitosan-QHREDGS: QHREDGS peptide covalently conjugated to Az-chitosan by EDC chemistry (also: covalently conjugated to Az-chitosan by EDC chemistry, site not given here)
[1]
  caspase-3/7 activation: significantly lower levels of caspase-3/7 activation
[2]
  heart cell survival and elongation in 3D hydrogel: heart cell elongation

## QHREDGS (angiopoietin 1 peptide)
[3]
  cardiomyocyte viability after exposure to H2O2: maintain cardiomyocyte viability
[4]
  cardiac myocyte ATP levels: substantially increased
[5]
  viability of cardiac cells (% Live-CFDA/Dead-PI): enhanced viability
[6]
  reduction of basal apoptosis levels in cardiac cells (Caspase 3/7): 2 fold
